Where a SMILES comes first, the peptide text is derived from it. Bridges are numbered along the chain shown (N, C = ends). Where no end group is shown, it is not given here. [ ]: non-standard residue; d: D form. Abu = CC[C@H](N)C(=O)O
Assays:
endothelin receptor = test: Assay of affinity for receptor (I125-ET-1 binding to porcine myocardial membrane fraction); settings: ET-1 = 100
Protocol: A membrane fraction prepared from the porcine heart was diluted to 0.15 mg/ml by using a buffer solution [PBS (pH 7.4) containing 0.5 mM CaCl2, 1.0 mM MgCl2, 0.02% NaN3, 0.1% BSA (fraction V, Sigma), 0.1 mM PMSF and 0.1 μg/ml pepstatin (binding buffer)] for assay, and 100 μl of the resulting suspension of the membrane fraction was poured into each assay tube to use for assay. To this suspension of the membrane fraction were added 2 μl of an endothelin-1 solution labeled with 5 μM radioactive iodine. Further, 3 μl of a test peptide solution was added thereto, followed by maintenance at a temperature of 25° C. for 1 hour. Then, the resulting suspension was diluted with 900 μl of the buffer solution for assay cooled with ice, and thereafter separated into a supernatant and a precipitate by centrifugation at 12,000×g for 10 minutes. Cell membranes and an endothelin receptor embedded therein were contained in the precipitate, and radioactive iodine-labeled endothelin combined with the receptor was also recovered in the precipitate. Accordingly, the amount of radioactive iodine-labeled endothelin combined with the endothelin receptor was determined by measuring the amount of radioactive iodine contained in the precipitate with a gamma-ray counter. Compounds in which the affinity for the endothelin receptor is high and the maximum constriction is not high are antagonists. Contrary to this, compounds in which the affinity for the endothelin receptor is high and the maximum constriction is high are agonists.

porcine coronary artery = format: cell-based; settings: for Constrictor activity (Relative potency): ET-1 = 100; for Maximum Constriction (% 60 mM KCl): normalized to constriction response to 60 mM KCl
Protocol: Each of helical strips 2 mm×15 mm prepared from the coronary right ramus circumflexus from which the adventitial connective tissues and the endothelial cells were removed was set to each of 4 ml organ baths. Its tension was detected by a force displacement transducer UL-10GR (Minebea), and recorded by a polygraph (NEC Sanei). The organ baths were maintained at 37° C., and filled with a Krebs-Henseleit solution (composition:118 mM NaCl, 4.7 mM KCl, 2.5 mM CaCl2, 1.2 mM KH2 PO4, 25.0 mM NaHCO3, 1.2 mM MgSO4, 10.0 mM glucose) gassed with 95% O2 and 5% CO2.
A tension of 1.25 to 1.5 g was applied to each of the strips, followed by equilibration for 1.5 hours. 60 mM KCl was repeatedly applied thereto at intervals of 30 minutes until the constriction response became constant. After additional equilibration for 1.5 hours, a sample for assay was given. The constriction of the strips was normalized by the constriction response of the individual strips to 60 mM KCl and statistically processed.
(2) As to the antagonist property or the agonist property of the peptide derivatives of present invention to endothelin, the affinity for an endothelin receptor and the constrictor activity to porcine coronary smooth muscles (according to the method described in (1) described above) were assayed. The affinity for the receptor was assayed by the following method.

Compound: CC[C@H](C)[C@H](NC(=O)[C@H](C)NC(=O)[C@H](CC(C)C)NC(=O)[C@H](Cc1c[nH]cn1)NC(=O)[C@@H]1CSSC[C@H](N)C(=O)N[C@@H](CO)C(=O)N[C@H]2CSSC[C@H](NC(=O)[C@H](CCC(=O)O)NC(=O)[C@H](CCCCN)NC(=O)[C@H](CC(=O)O)NC(=O)[C@H](CCSC)NC(=O)[C@H](CC(C)C)NC(=O)[C@H](CO)NC(=O)[C@H](CO)NC2=O)C(=O)N[C@@H](C(C)C)C(=O)N[C@@H](Cc2ccc(O)cc2)C(=O)N[C@@H](Cc2ccccc2)C(=O)N1)C(=O)N[C@H](C(=O)N[C@@H](Cc1c[nH]c2ccccc12)C(=O)O)[C@@H](C)CC [Example 25, [Ala^18]-ET-1] (H-CSCSSLMDKECVYFCHLAIIW-OH; disulfide 1-15, 3-11)
- Receptor binding activity (Relative potency) (endothelin receptor): 9.1
- Constrictor activity (Relative potency) (porcine coronary artery): 7.8
- Maximum Constriction (% 60 mM KCl) (porcine coronary artery): 62 % 60 mM KCl

Compound: CC[C@H](C)[C@H](NC(=O)[C@H](CC(C)C)NC(=O)[C@H](CC(C)C)NC(=O)[C@H](Cc1c[nH]cn1)NC(=O)[C@@H]1CSSC[C@H](N)C(=O)N[C@@H](CO)C(=O)N[C@@H](C)C(=O)N[C@@H](CO)C(=O)N[C@@H](CO)C(=O)N[C@@H](CC(C)C)C(=O)N[C@@H](CCSC)C(=O)N[C@@H](CC(=O)O)C(=O)N[C@@H](CCCCN)C(=O)N[C@@H](CCC(=O)O)C(=O)N[C@@H](C)C(=O)N[C@@H](C(C)C)C(=O)N[C@@H](Cc2ccc(O)cc2)C(=O)N[C@@H](Cc2ccccc2)C(=O)N1)C(=O)N[C@H](C(=O)N[C@@H](Cc1c[nH]c2ccccc12)C(=O)O)[C@@H](C)CC [Example 22, [Ala^3,11, Leu^18]-ET-1] (H-CSASSLMDKEAVYFCHLLIIW-OH; disulfide 1-15)
- Receptor binding activity (Relative potency) (endothelin receptor): 1.27
- Constrictor activity (Relative potency) (porcine coronary artery): < 0.1
- Maximum Constriction (% 60 mM KCl) (porcine coronary artery): 3 % 60 mM KCl

Compound: CC[C@H](C)[C@H](NC(=O)CNC(=O)[C@H](CC(C)C)NC(=O)[C@H](Cc1c[nH]cn1)NC(=O)[C@@H]1CSSC[C@H](N)C(=O)N[C@@H](CO)C(=O)N[C@H]2CSSC[C@H](NC(=O)[C@H](CCC(=O)O)NC(=O)[C@H](CCCCN)NC(=O)[C@H](CC(=O)O)NC(=O)[C@H](CCSC)NC(=O)[C@H](CC(C)C)NC(=O)[C@H](CO)NC(=O)[C@H](CO)NC2=O)C(=O)N[C@@H](C(C)C)C(=O)N[C@@H](Cc2ccc(O)cc2)C(=O)N[C@@H](Cc2ccccc2)C(=O)N1)C(=O)N[C@H](C(=O)N[C@@H](Cc1c[nH]c2ccccc12)C(=O)O)[C@@H](C)CC [Example 28, [Gly^18]-ET-1] (H-CSCSSLMDKECVYFCHLGIIW-OH; disulfide 1-15, 3-11)
- Receptor binding activity (Relative potency) (endothelin receptor): 39.8
- Constrictor activity (Relative potency) (porcine coronary artery): 43
- Maximum Constriction (% 60 mM KCl) (porcine coronary artery): 99 % 60 mM KCl

Compound: CC[C@H](C)[C@H](NC(=O)[C@H](CC(=O)O)NC(=O)[C@H](CC(C)C)NC(=O)[C@H](Cc1c[nH]cn1)NC(=O)[C@@H]1CSSC[C@H](N)C(=O)N[C@@H](CO)C(=O)N[C@@H](CC(C)C)C(=O)N[C@@H](CO)C(=O)N[C@@H](CO)C(=O)N[C@@H](CC(C)C)C(=O)N[C@@H](CCSC)C(=O)N[C@@H](CC(=O)O)C(=O)N[C@@H](CCCCN)C(=O)N[C@@H](CCC(=O)O)C(=O)N[C@@H](C)C(=O)N[C@@H](C(C)C)C(=O)N[C@@H](Cc2ccc(O)cc2)C(=O)N[C@@H](Cc2ccccc2)C(=O)N1)C(=O)N[C@H](C(=O)N[C@@H](Cc1c[nH]c2ccccc12)C(=O)O)[C@@H](C)CC [Example 52, [Leu^3, Ala^11]-ET-1] (H-CSLSSLMDKEAVYFCHLDIIW-OH; disulfide 1-15)
- Receptor binding activity (Relative potency) (endothelin receptor): 0.35
- Constrictor activity (Relative potency) (porcine coronary artery): < 0.1
- Maximum Constriction (% 60 mM KCl) (porcine coronary artery): 6 % 60 mM KCl

Compound: [Trp^3,11 ]-ET-1 (CSWSSLMDKEWVYFCHLDIIW; ends and bridges not checked; cysteine pairing not given here; UniProt P05305 53-73, looked up, variant C3W C11W) [Example 4]
- Receptor binding activity (Relative potency) (endothelin receptor): 0.27
- Constrictor activity (Relative potency) (porcine coronary artery): < 0.1
- Maximum Constriction (% 60 mM KCl) (porcine coronary artery): 10 % 60 mM KCl

Compound: CC[C@H](NC(=O)[C@H](CC(C)C)NC(=O)[C@H](Cc1c[nH]cn1)NC(=O)[C@@H]1CSSC[C@H](N)C(=O)N[C@@H](CO)C(=O)N[C@H]2CSSC[C@H](NC(=O)[C@H](CCC(=O)O)NC(=O)[C@H](CCCCN)NC(=O)[C@H](CC(=O)O)NC(=O)[C@H](CCSC)NC(=O)[C@H](CC(C)C)NC(=O)[C@H](CO)NC(=O)[C@H](CO)NC2=O)C(=O)N[C@@H](C(C)C)C(=O)N[C@@H](Cc2ccc(O)cc2)C(=O)N[C@@H](Cc2ccccc2)C(=O)N1)C(=O)N[C@H](C(=O)N[C@H](C(=O)N[C@@H](Cc1c[nH]c2ccccc12)C(=O)O)[C@@H](C)CC)[C@@H](C)CC [Example 30, [Abu^18]-ET-1] (H-CSCSSLMDKECVYFCHL[Abu]IIW-OH; disulfide 1-15, 3-11)
- Receptor binding activity (Relative potency) (endothelin receptor): 5.0
- Constrictor activity (Relative potency) (porcine coronary artery): < 0.1
- Maximum Constriction (% 60 mM KCl) (porcine coronary artery): 6 % 60 mM KCl

Compound: CC[C@H](C)[C@H](NC(=O)[C@H](CC(C)C)NC(=O)[C@H](Cc1c[nH]cn1)NC(=O)[C@@H]1CSSC[C@H](N)C(=O)N[C@@H](CO)C(=O)N[C@H]2CSSC[C@H](NC(=O)[C@H](CCC(=O)O)NC(=O)[C@H](CCCCN)NC(=O)[C@H](CC(=O)O)NC(=O)[C@H](CCSC)NC(=O)[C@H](CC(C)C)NC(=O)[C@H](CO)NC(=O)[C@H](CO)NC2=O)C(=O)N[C@@H](C(C)C)C(=O)N[C@@H](Cc2ccc(O)cc2)C(=O)N[C@@H](Cc2ccccc2)C(=O)N1)C(=O)N[C@H](C(=O)N[C@H](C(=O)N[C@@H](Cc1c[nH]c2ccccc12)C(=O)O)[C@@H](C)CC)[C@@H](C)CC [Example 43, [Ile^18]-ET-1] (H-CSCSSLMDKECVYFCHLIIIW-OH; disulfide 1-15, 3-11)
- Receptor binding activity (Relative potency) (endothelin receptor): 3.2
- Constrictor activity (Relative potency) (porcine coronary artery): < 0.1
- Maximum Constriction (% 60 mM KCl) (porcine coronary artery): 0 % 60 mM KCl

Compound: [Asn^18 ]-ET-1 (CSCSSLMDKECVYFCHLNIIW; ends and bridges not checked; cysteine pairing not given here; UniProt P05305 53-73, looked up, variant D18N) [Example 35]
- Receptor binding activity (Relative potency) (endothelin receptor): 9.1
- Constrictor activity (Relative potency) (porcine coronary artery): < 0.1
- Maximum Constriction (% 60 mM KCl) (porcine coronary artery): 43 % 60 mM KCl

Compound: CC[C@H](C)[C@H](NC(=O)[C@H](CC(=O)O)NC(=O)[C@H](CC(C)C)NC(=O)[C@H](Cc1c[nH]cn1)NC(=O)[C@@H]1CSSC[C@H](N)C(=O)N[C@@H](CO)C(=O)N[C@@H](CC(C)C)C(=O)N[C@@H](CO)C(=O)N[C@@H](CO)C(=O)N[C@@H](CC(C)C)C(=O)N[C@@H](CCSC)C(=O)N[C@@H](CC(=O)O)C(=O)N[C@@H](CCCCN)C(=O)N[C@@H](CCC(=O)O)C(=O)N[C@@H](CC(C)C)C(=O)N[C@@H](C(C)C)C(=O)N[C@@H](Cc2ccc(O)cc2)C(=O)N[C@@H](Cc2ccccc2)C(=O)N1)C(=O)N[C@H](C(=O)N[C@@H](Cc1c[nH]c2ccccc12)C(=O)O)[C@@H](C)CC [Example 38, [Leu^3,11]-ET-1] (H-CSLSSLMDKELVYFCHLDIIW-OH; disulfide 1-15)
- Receptor binding activity (Relative potency) (endothelin receptor): 0.1
- Constrictor activity (Relative potency) (porcine coronary artery): < 0.1
- Maximum Constriction (% 60 mM KCl) (porcine coronary artery): 10 % 60 mM KCl

— patent US5306808A, “Peptide derivatives having vasodilating activity” (Takeda Chemical Industries, Ltd., priority 1991, dated 1994)
